For orientation: MIC means the lowest concentration that inhibits growth of the organism.

Drawing on US10669290B2, “Beta-lactamase inhibitors” (priority 2012, dated 2020), this text covers MIC for eleven compounds.

Assay type in all cases: cell-based
One test concerns E. cl 144200 p99 AmpC. Put plainly: Broth microdilution MIC, E. cloacae 144200. The settings on record: Enterobacter cloacae; fixed ceftazidime 4 μg/mL, CAMHB, 16-20 hours 37° C.; read-out: MIC of exemplary compounds in presence of fixed β-lactams, Fixed CAZ, E. cl 144200 p99 AmpC. An outline of the steps:
(§1)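 In this CLSI broth microdilution format, plates hold the test compound titrated 2-fold (32 to 0.25 μg/mL final) in CAMHB plus a fixed 4 μg/ml β-lactam. Incubation runs 16-20 h at 37° C, and the MIC is scored by eye.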

The subject of the next test is S. aureus MSSA-7 PC-1. The experiment in a line: Broth microdilution MIC, S. aureus MSSA-7. As to conditions: Staphylococcus aureus, fixed piperacillin 4 μg/mL, CAMHB, 16-20 hours 37° C., read-out: MIC of exemplary compounds in presence of fixed β-lactams, Fixed Pip, S. aureus MSSA-7 PC-1.
Another test has as its system K.P. 156319 KPC-3. The experiment in a line: Broth microdilution MIC, K. pneumoniae 156319. The settings on record: Klebsiella pneumoniae; fixed meropenem 4 μg/mL, CAMHB, 16-20 hours 37° C.; read-out: MIC of exemplary compounds in presence of fixed β-lactams, Fixed Mero, K.P. 156319 KPC-3. Background: In broth dilution the organism is exposed to a series of concentrations in liquid medium.

The next test has as its system E. coli ESBL4 CTX-M-15. The experiment in a line: Broth microdilution MIC, E. coli ESBL4. As to conditions: Escherichia coli, ESBL4CTXM15; fixed ceftazidime 4 μg/mL, CAMHB, 16-20 hours 37° C.; read-out: MIC of exemplary compounds in presence of fixed β-lactams, Fixed CAZ, E. coli ESBL4 CTX-M-15. Put shortly: as §1
Another test concerns P. aerug. Ps296 VIM-2. Put plainly: Broth microdilution MIC, P. aeruginosa Ps296. As to conditions: Pseudomonas aeruginosa; fixed meropenem 4 μg/mL, CAMHB, 16-20 hours 37° C.; read-out: MIC of exemplary compounds in presence of fixed β-lactams, Fixed Mero, P. aerug. Ps296 VIM-2. An outline of the steps: as §1
The next test has as its system K.P. A-1797 KPC-2 VIM-4. Put plainly: Broth microdilution MIC, K. pneumoniae A-1797. The settings on record: Klebsiella pneumoniae; fixed meropenem 4 μg/mL, CAMHB, 16-20 hours 37° C.; read-out: MIC of exemplary compounds in presence of fixed β-lactams, Fixed Mero, K.P. A-1797 KPC-2 VIM-4.

As for `N[C@H]1CC[C@@H](CC(=O)N[C@H]2Cc3cccc(C(=O)O)c3OB2O)CC1` [Example 7, (R)-3-(2-(cis-4-aminocyclohexyl)acetamido)-2-hydroxy-3,4-dihydro-2H-benzo[e][1,2]oxaborinine-8-carboxylic acid], the MIC in the test with E. cl 144200 p99 AmpC was below 4 µg/mL; in the test with S. aureus MSSA-7 PC-1 it was 8 to 32 µg/mL; in the test on K.P. 156319 KPC-3 it was below 4 µg/mL; with E. coli ESBL4 CTX-M-15, below 4 µg/mL; in the test with P. aerug. Ps296 VIM-2, above 32 µg/mL; with K.P. A-1797 KPC-2 VIM-4 it was above 32 µg/mL.
In the case of `CN(C)C[C@H]1CC[C@H](CC(=O)N(C)[C@H]2Cc3cccc(C(=O)O)c3OB2O)CC1` [Example 8, (R)-3-(2-(trans-4-((dimethylamino)methyl)cyclohexyl)-N-methylacetamido)-2-hydroxy-3,4-dihydro-2H-benzo[e][1,2]oxaborinine-8-carboxylic acid], the minimum inhibitory concentration (MIC) in the test on E. cl 144200 p99 AmpC is below 4 µg/mL; in the test with S. aureus MSSA-7 PC-1, below 4 µg/mL; with K.P. 156319 KPC-3, 8 to 32 µg/mL; with E. coli ESBL4 CTX-M-15 it was below 4 µg/mL; with P. aerug. Ps296 VIM-2, 8 to 32 µg/mL; in the test on K.P. A-1797 KPC-2 VIM-4, above 32 µg/mL.
In the case of `O=C(C[C@H]1CC[C@H](NCCO)CC1)N[C@H]1Cc2cccc(C(=O)O)c2OB1O` [Example 26, (R)-2-hydroxy-3-(2-(trans-4-(2-hydroxyethylamino)cyclohexyl)acetamido)-3,4-dihydro-2H-benzo[e][1,2]oxaborinine-8-carboxylic acid], the MIC with E. cl 144200 p99 AmpC, in the test on S. aureus MSSA-7 PC-1, in the test on K.P. 156319 KPC-3, in the test with E. coli ESBL4 CTX-M-15, in the test on P. aerug. Ps296 VIM-2 and in the test with K.P. A-1797 KPC-2 VIM-4 was below 4 µg/mL throughout.
On to `N=C(N)NC[C@H]1CC[C@H](CC(=O)N[C@H]2Cc3cccc(C(=O)O)c3OB2O)CC1` [Example 4, (R)-3-(2-(trans-4-(guanidinomethyl)cyclohexyl)acetamido)-2-hydroxy-3,4-dihydro-2H-benzo[e][1,2]oxaborinine-8-carboxylic acid], for which the MIC was below 4 µg/mL in the test with E. cl 144200 p99 AmpC; below 4 µg/mL in the test on S. aureus MSSA-7 PC-1; below 4 µg/mL with K.P. 156319 KPC-3; below 4 µg/mL in the test on E. coli ESBL4 CTX-M-15; below 4 µg/mL with P. aerug. Ps296 VIM-2; 8 to 32 µg/mL in the test on K.P. A-1797 KPC-2 VIM-4.
On to `NCCC(N)[C@H]1CC[C@H](CC(=O)N[C@H]2Cc3cccc(C(=O)O)c3OB2O)CC1` (stereo partly drawn) [Example 76, (R)-3-(2-(trans-4-(1,3-diaminopropyl)cyclohexyl)acetamido)-2-hydroxy-3,4-dihydro-2H-benzo[e][1,2]oxaborinine-8-carboxylic acid], for which the MIC with E. cl 144200 p99 AmpC is below 4 µg/mL; with S. aureus MSSA-7 PC-1, below 4 µg/mL; in the test on K.P. 156319 KPC-3 it was below 4 µg/mL; in the test with E. coli ESBL4 CTX-M-15, below 4 µg/mL; in the test with P. aerug. Ps296 VIM-2 it was 8 to 32 µg/mL; in the test on K.P. A-1797 KPC-2 VIM-4, below 4 µg/mL.
Take `CN(C)CCN[C@H]1CC[C@H](CC(=O)N[C@H]2Cc3cccc(C(=O)O)c3OB2O)CC1` [Example 79, (R)-3-(2-(trans-4-(2-(dimethylamino)ethylamino)cyclohexyl)acetamido)-2-hydroxy-3,4-dihydro-2H-benzo[e][1,2]oxaborinine-8-carboxylic acid]: the MIC in the test on E. cl 144200 p99 AmpC, in the test on S. aureus MSSA-7 PC-1, in the test with K.P. 156319 KPC-3, with E. coli ESBL4 CTX-M-15, with P. aerug. Ps296 VIM-2 and in the test on K.P. A-1797 KPC-2 VIM-4 was below 4 µg/mL each time.
Consider `COC(=O)NCCN[C@H]1CC[C@H](CC(=O)N[C@H]2Cc3cccc(C(=O)O)c3OB2O)CC1` [Example 54, (R)-2-hydroxy-3-(2-(trans-4-(2-(methoxycarbonylamino)ethylamino)cyclohexyl)acetamido)-3,4-dihydro-2H-benzo[e][1,2]oxaborinine-8-carboxylic acid], for which the MIC in the test on E. cl 144200 p99 AmpC was below 4 µg/mL; in the test with S. aureus MSSA-7 PC-1, below 4 µg/mL; in the test with K.P. 156319 KPC-3 it was below 4 µg/mL; with E. coli ESBL4 CTX-M-15 it was below 4 µg/mL; in the test with P. aerug. Ps296 VIM-2 it was below 4 µg/mL; with K.P. A-1797 KPC-2 VIM-4 it was 8 to 32 µg/mL.
In the case of `O=C(C[C@H]1CC[C@H](N(Cc2ncc[nH]2)Cc2ncc[nH]2)CC1)N[C@H]1Cc2cccc(C(=O)O)c2OB1O` [Example 69, (R)-3-(2-(trans-4-(bis((1H-imidazol-2-yl)methyl)amino)cyclohexyl)acetamido)-2-hydroxy-3,4-dihydro-2H-benzo[e][1,2]oxaborinine-8-carboxylic acid], the MIC in the test on E. cl 144200 p99 AmpC is below 4 µg/mL; in the test on S. aureus MSSA-7 PC-1, below 4 µg/mL; in the test on K.P. 156319 KPC-3, below 4 µg/mL; in the test with E. coli ESBL4 CTX-M-15, below 4 µg/mL; in the test with P. aerug. Ps296 VIM-2 it was below 4 µg/mL; in the test on K.P. A-1797 KPC-2 VIM-4, above 32 µg/mL.
For the compound `NCCNC1CC(CC(=O)N[C@H]2Cc3cccc(C(=O)O)c3OB2O)C1` (stereo partly drawn) [Example 55, (R)-3-(2-(3-(2-aminoethylamino)cyclobutyl)acetamido)-2-hydroxy-3,4-dihydro-2H-benzo[e][1,2]oxaborinine-8-carboxylic acid], the MIC in the test with E. cl 144200 p99 AmpC, with S. aureus MSSA-7 PC-1, in the test on K.P. 156319 KPC-3, in the test with E. coli ESBL4 CTX-M-15, in the test on P. aerug. Ps296 VIM-2 and in the test on K.P. A-1797 KPC-2 VIM-4 was below 4 µg/mL each time.
With `O=C(C[C@H]1CC[C@H](NCC2CCNCC2)CC1)N[C@H]1Cc2cccc(C(=O)O)c2OB1O` [Example 33, (R)-2-hydroxy-3-(2-(trans-4-(piperidin-4-ylmethylamino)cyclohexyl)acetamido)-3,4-dihydro-2H-benzo[e][1,2]oxaborinine-8-carboxylic acid], the MIC with E. cl 144200 p99 AmpC is below 4 µg/mL; in the test on S. aureus MSSA-7 PC-1, below 4 µg/mL; with K.P. 156319 KPC-3 it was below 4 µg/mL; in the test on E. coli ESBL4 CTX-M-15 it was below 4 µg/mL; in the test on P. aerug. Ps296 VIM-2, 8 to 32 µg/mL; in the test with K.P. A-1797 KPC-2 VIM-4 it was 8 to 32 µg/mL.
As for `NCCNC(=O)N[C@H]1CC[C@H](CC(=O)N[C@H]2Cc3cccc(C(=O)O)c3OB2O)CC1` [Example 59, (R)-3-(2-(trans-4-(3-(2-aminoethyl)ureido)cyclohexyl)acetamido)-2-hydroxy-3,4-dihydro-2H-benzo[e][1,2]oxaborinine-8-carboxylic acid], the MIC is below 4 µg/mL with E. cl 144200 p99 AmpC; below 4 µg/mL with S. aureus MSSA-7 PC-1; below 4 µg/mL with K.P. 156319 KPC-3; below 4 µg/mL in the test with E. coli ESBL4 CTX-M-15; below 4 µg/mL in the test on P. aerug. Ps296 VIM-2; 8 to 32 µg/mL in the test on K.P. A-1797 KPC-2 VIM-4.
